Measured values: patent US8889712B2, “IAP antagonists” (Bristol-Myers Squibb Company, priority 2012, dated 2014)
pIC50: −log10 of the molar value.

Columns and labels:
XIAP BIR3 = molecular target: T1, XIAP BIR3 (Homo sapiens, UniProt P98170); assay: XIAP-BIR3/SMAC Homogeneous Time Resolved Fluorescence (HTRF) Assay; assay type: binding; conditions: 1 nM N-His-BIR3 (241-356, XIAP), 5 nM fluorescein labeled SMAC peptide; HTRF signal; read-out: XIAP BIR3 IC50
T1 construct: His-BIR3 (241-356, XIAP)
T1 sequence (P98170 241-356): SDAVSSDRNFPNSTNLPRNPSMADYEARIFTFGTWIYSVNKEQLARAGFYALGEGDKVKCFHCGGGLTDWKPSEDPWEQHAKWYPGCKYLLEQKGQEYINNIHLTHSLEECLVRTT
Protocol: A. XIAP-BIR3/SMAC Homogeneous Time Resolved Fluorescence (HTRF) Assay Assays were performed in black, flat-bottom, 384-well plates. […] The reaction was incubated at room temperature for 60 minutes, following which 10 μl of mouse anti-6×His-terbium labeled Fab (Medarex, Cis-bio) was added to the reaction (40 μl) for an additional 30 minute incubation. […] Compounds were dissolved at 3 mM in dimethylsulfoxide (DMSO) and evaluated at eleven serially diluted concentrations. IC50 and Ki values were derived by non-linear regression analysis.

XIAP BIR2-3 = molecular target: T2, XIAP BIR2-3 (Homo sapiens, UniProt P98170, C202A/C213G); assay: XIAP-BIR2-3 dimeric SMAC Peptide Homogeneous Time Resolved Fluorescence (HTRF) Assay; assay type: binding; conditions: 0.5 nM N-His-BIR2-3 (125-356, C202A/C213G, XIAP), 20 nM fluorescein labeled dimeric SMAC peptide; HTRF signal; read-out: XIAP BIR2-3 IC50
T2 construct: His-BIR2-3 (125-356, C202A/C213G, XIAP)
T2 sequence (P98170 125-356 C202A/C213G): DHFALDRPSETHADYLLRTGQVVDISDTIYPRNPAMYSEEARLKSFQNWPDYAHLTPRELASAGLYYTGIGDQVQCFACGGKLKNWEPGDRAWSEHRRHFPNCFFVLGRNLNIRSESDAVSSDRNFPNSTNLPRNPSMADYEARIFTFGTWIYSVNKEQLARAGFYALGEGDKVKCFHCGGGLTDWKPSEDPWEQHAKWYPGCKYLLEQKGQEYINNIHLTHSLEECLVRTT
Protocol: B. […] Assays were performed in black, flat-bottom, 384-well plates. […] Compounds were dissolved at 3 mM in dimethylsulfoxide (DMSO) and evaluated at eleven serially diluted concentrations. IC50 and Ki values were derived by non-linear regression analysis.

| Compound | pIC50 (XIAP BIR3) | pIC50 (XIAP BIR2-3) |
| --- | --- | --- |
| CN[C@@H](C)C(=O)N[C@@H](CC1CCCCC1)C(=O)N1Cc2cc(C(=O)N[C@H]3C[C@@H](C(=O)N[C@@H]4CCCc5ccccc54)N(C(=O)[C@@H](NC(=O)[C@H](C)NC)C(C)(C)C)C3)ccc2C[C@H]1C(=O)N[C@@H]1CCCc2ccccc21 [Example 9, (S)-2-((S)-3-Cyclohexyl-2-((S)-2-(methylamino)propanamido)propanoyl)-N^7-((3S,5S)-1-((S)-3,3-dimethyl-2-((S)-2-(methylamino)propanamido)butanoyl)-5-(((R)-1,2,3,4-tetrahydronaphthalen-1-yl)carbamoyl)pyrrolidin-3-yl)-N^3-((R)-1,2,3,4-tetrahydronaphthalen-1-yl)-1,2,3,4-tetrahydroisoquinoline-3,7-dicarboxamide] | 7.48 | 8.52 |
| CN[C@@H](C)C(=O)N[C@H](C(=O)N1C[C@@H](NC(=O)c2ccc3c(c2)CN(C(=O)[C@@H](NC(=O)[C@H](C)NC)C24CC5CC(CC(C5)C2)C4)[C@H](C(=O)NC2CCCc4ccccc42)C3)C[C@H]1C(=O)NC1CCCc2ccccc21)C(C)(C)C (stereo partly drawn) [Example 10, (S)-2-((S)-2-((3S,5S,7S)-Adamantan-1-yl)-2-((S)-2-(methylamino)propanamido)acetyl)-N^7-((3S,5S)-1-((S)-3,3-dimethyl-2-((S)-2-(methylamino)propanamido)butanoyl)-5-(((R)-1,2,3,4-tetrahydronaphthalen-1-yl)carbamoyl)pyrrolidin-3-yl)-N^3-((R)-1,2,3,4-tetrahydronaphthalen-1-yl)-1,2,3,4-tetrahydroisoquinoline-3,7-dicarboxamide] | 7.20 | 8.40 |
| CN[C@@H](C)C(=O)N[C@@H](Cc1cc(F)cc(F)c1)C(=O)N1Cc2cc(C(=O)N[C@H]3C[C@@H](C(=O)N[C@@H]4CCCc5ccccc54)N(C(=O)[C@@H](NC(=O)[C@H](C)NC)C(C)(C)C)C3)ccc2C[C@H]1C(=O)N[C@@H]1CCCc2ccccc21 [Example 11, (S)-2-((S)-3-(3,5-Difluorophenyl)-2-((S)-2-(methylamino)propanamido)propanoyl)-N^7-((3S,5S)-1-((S)-3,3-dimethyl-2-((S)-2-(methylamino)propanamido)butanoyl)-5-(((R)-1,2,3,4-tetrahydronaphthalen-1-yl)carbamoyl)pyrrolidin-3-yl)-N^3-((R)-1,2,3,4-tetrahydronaphthalen-1-yl)-1,2,3,4-tetrahydroisoquinoline-3,7-dicarboxamide] | 7.60 | 8.00 |

More lines, in order of rising pIC50 (XIAP BIR3), values ahead:

| pIC50 (XIAP BIR3) | pIC50 (XIAP BIR2-3) | Compound |
| --- | --- | --- |
| 7.96 | 8.70 | CCC(CC)[C@H](NC(=O)[C@H](C)NC)C(=O)N1Cc2cc(C(=O)N[C@H]3C[C@@H](C(=O)N[C@@H]4CCCc5ccccc54)N(C(=O)[C@@H](NC(=O)[C@H](C)NC)C(C)(C)C)C3)ccc2C[C@H]1C(=O)N[C@@H]1CCCc2ccccc21 [Example 8, (S)-N^7-((3S,5S)-1-((S)-3,3-Dimethyl-2-((S)-2-(methylamino)propanamido)butanoyl)-5-(((R)-1,2,3,4-tetrahydronaphthalen-1-yl)carbamoyl)pyrrolidin-3-yl)-2-((S)-3-ethyl-2-((S)-2-(methylamino)propanamido)pentanoyl)-N^3-((R)-1,2,3,4-tetrahydronaphthalen-1-yl)-1,2,3,4-tetrahydroisoquinoline-3,7-dicarboxamide] |
| 8.22 | 8.22 | CN[C@@H](C)C(=O)N[C@H](C(=O)N1Cc2cc(C(=O)N[C@H]3C[C@@H](C(=O)N[C@@H]4CCCc5ccccc54)N(C(=O)[C@@H](NC(=O)[C@H](C)NC)C(C)(C)C)C3)ccc2C[C@H]1C(=O)N[C@@H]1CCCc2ccccc21)[C@@H](C)OC [Example 7, (S)-N^7-((3S,5S)-1-((S)-3,3-Dimethyl-2-((S)-2-(methylamino)propanamido)butanoyl)-5-(((R)-1,2,3,4-tetrahydronaphthalen-1-yl)carbamoyl)pyrrolidin-3-yl)-2-((2S,3R)-3-methoxy-2-((S)-2-(methylamino)propanamido)butanoyl)-N^3-((R)-1,2,3,4-tetrahydronaphthalen-1-yl)-1,2,3,4-tetrahydroisoquinoline-3,7-dicarboxamide] |
